Test results reported in BigSolDB 2.1.

O=C1NC23NC(=O)NC2(N1)C(=O)NC3=O (stereo not given)
solubility (mole fraction) (in 1,4-dioxane, 273.15 K): 0.000149
solubility (mole fraction) (in 1,4-dioxane, 278.15 K): 0.000174
solubility (mole fraction) (in 1,4-dioxane, 283.15 K): 0.000214
solubility (mole fraction) (in 1,4-dioxane, 288.15 K): 0.000267
solubility (mole fraction) (in 1,4-dioxane, 293.15 K): 0.000333
solubility (mole fraction) (in 1,4-dioxane, 298.15 K): 0.000453
solubility (mole fraction) (in 1,4-dioxane, 303.15 K): 0.000601
solubility (mole fraction) (in 1,4-dioxane, 308.15 K): 0.000696
solubility (mole fraction) (in 1,4-dioxane, 313.15 K): 0.000856
solubility (mole fraction) (in 1,4-dioxane, 318.15 K): 0.00102
solubility (mole fraction) (in THF, 273.15 K): 0.000553
solubility (mole fraction) (in THF, 278.15 K): 0.000655
solubility (mole fraction) (in THF, 283.15 K): 0.000783
solubility (mole fraction) (in THF, 288.15 K): 0.000992
solubility (mole fraction) (in THF, 293.15 K): 0.00121
solubility (mole fraction) (in THF, 298.15 K): 0.00151
solubility (mole fraction) (in THF, 303.15 K): 0.00192
solubility (mole fraction) (in THF, 308.15 K): 0.00224
solubility (mole fraction) (in THF, 313.15 K): 0.00274
solubility (mole fraction) (in THF, 318.15 K): 0.00325
solubility (mole fraction) (in acetone, 273.15 K): 5.58e-05
solubility (mole fraction) (in acetone, 278.15 K): 6.73e-05
solubility (mole fraction) (in acetone, 283.15 K): 7.84e-05
solubility (mole fraction) (in acetone, 288.15 K): 9.4e-05
solubility (mole fraction) (in acetone, 293.15 K): 0.000114
solubility (mole fraction) (in acetone, 298.15 K): 0.000131
solubility (mole fraction) (in acetone, 303.15 K): 0.000158
solubility (mole fraction) (in acetone, 308.15 K): 0.00018
solubility (mole fraction) (in acetone, 313.15 K): 0.000202
solubility (mole fraction) (in acetone, 318.15 K): 0.000246
solubility (mole fraction) (in acetonitrile, 273.15 K): 9e-06
solubility (mole fraction) (in acetonitrile, 278.15 K): 1.15e-05
solubility (mole fraction) (in acetonitrile, 283.15 K): 1.43e-05
solubility (mole fraction) (in acetonitrile, 288.15 K): 1.72e-05
solubility (mole fraction) (in acetonitrile, 293.15 K): 2.16e-05
solubility (mole fraction) (in acetonitrile, 298.15 K): 2.75e-05
solubility (mole fraction) (in acetonitrile, 303.15 K): 3.6e-05
solubility (mole fraction) (in acetonitrile, 308.15 K): 4.4e-05
solubility (mole fraction) (in acetonitrile, 313.15 K): 5.5e-05
solubility (mole fraction) (in acetonitrile, 318.15 K): 6.79e-05
solubility (mole fraction) (in ethanol, 273.15 K): 6.15e-05
solubility (mole fraction) (in ethanol, 278.15 K): 7.48e-05
solubility (mole fraction) (in ethanol, 283.15 K): 9.23e-05
solubility (mole fraction) (in ethanol, 288.15 K): 0.000113
solubility (mole fraction) (in ethanol, 293.15 K): 0.000136
solubility (mole fraction) (in ethanol, 298.15 K): 0.00017
solubility (mole fraction) (in ethanol, 303.15 K): 0.000214
solubility (mole fraction) (in ethanol, 308.15 K): 0.000264
solubility (mole fraction) (in ethanol, 313.15 K): 0.000322
solubility (mole fraction) (in ethanol, 318.15 K): 0.000419
solubility (mole fraction) (in ethyl acetate, 273.15 K): 2.59e-05
solubility (mole fraction) (in ethyl acetate, 278.15 K): 3.38e-05
solubility (mole fraction) (in ethyl acetate, 283.15 K): 4.59e-05
solubility (mole fraction) (in ethyl acetate, 288.15 K): 6.9e-05
solubility (mole fraction) (in ethyl acetate, 293.15 K): 9.2e-05
solubility (mole fraction) (in ethyl acetate, 298.15 K): 0.000124
solubility (mole fraction) (in ethyl acetate, 303.15 K): 0.000167
solubility (mole fraction) (in ethyl acetate, 308.15 K): 0.000225
solubility (mole fraction) (in ethyl acetate, 313.15 K): 0.000322
solubility (mole fraction) (in ethyl acetate, 318.15 K): 0.000413
solubility (mole fraction) (in ethylene glycol, 273.15 K): 0.00029
solubility (mole fraction) (in ethylene glycol, 278.15 K): 0.000326
solubility (mole fraction) (in ethylene glycol, 283.15 K): 0.00036
solubility (mole fraction) (in ethylene glycol, 288.15 K): 0.000404
solubility (mole fraction) (in ethylene glycol, 293.15 K): 0.000459
solubility (mole fraction) (in ethylene glycol, 298.15 K): 0.000516
solubility (mole fraction) (in ethylene glycol, 303.15 K): 0.000587
solubility (mole fraction) (in ethylene glycol, 308.15 K): 0.000638
solubility (mole fraction) (in ethylene glycol, 313.15 K): 0.00073
solubility (mole fraction) (in ethylene glycol, 318.15 K): 0.000822
solubility (mole fraction) (in isopropanol, 273.15 K): 0.000113
solubility (mole fraction) (in isopropanol, 278.15 K): 0.000133
solubility (mole fraction) (in isopropanol, 283.15 K): 0.000162
solubility (mole fraction) (in isopropanol, 288.15 K): 0.000192
solubility (mole fraction) (in isopropanol, 293.15 K): 0.000234
solubility (mole fraction) (in isopropanol, 298.15 K): 0.000284
solubility (mole fraction) (in isopropanol, 303.15 K): 0.000364
solubility (mole fraction) (in isopropanol, 308.15 K): 0.000482
solubility (mole fraction) (in isopropanol, 313.15 K): 0.000526
solubility (mole fraction) (in isopropanol, 318.15 K): 0.000614
solubility (mole fraction) (in methanol, 273.15 K): 0.00161
solubility (mole fraction) (in methanol, 278.15 K): 0.00184
solubility (mole fraction) (in methanol, 283.15 K): 0.00243
solubility (mole fraction) (in methanol, 288.15 K): 0.00286
solubility (mole fraction) (in methanol, 293.15 K): 0.00348
solubility (mole fraction) (in methanol, 298.15 K): 0.00409
solubility (mole fraction) (in methanol, 303.15 K): 0.0049
solubility (mole fraction) (in methanol, 308.15 K): 0.00592
solubility (mole fraction) (in methanol, 313.15 K): 0.00727
solubility (mole fraction) (in methanol, 318.15 K): 0.00843
solubility (mole fraction) (in n-propanol, 273.15 K): 2.56e-05
solubility (mole fraction) (in n-propanol, 278.15 K): 3.13e-05
solubility (mole fraction) (in n-propanol, 283.15 K): 3.83e-05
solubility (mole fraction) (in n-propanol, 288.15 K): 4.65e-05
solubility (mole fraction) (in n-propanol, 293.15 K): 6.12e-05
solubility (mole fraction) (in n-propanol, 298.15 K): 8.12e-05
solubility (mole fraction) (in n-propanol, 303.15 K): 0.000103
solubility (mole fraction) (in n-propanol, 308.15 K): 0.000122
solubility (mole fraction) (in n-propanol, 313.15 K): 0.000151
solubility (mole fraction) (in n-propanol, 318.15 K): 0.00019
solubility (mole fraction) (in toluene, 273.15 K): 3.2e-06
solubility (mole fraction) (in toluene, 278.15 K): 4.3e-06
solubility (mole fraction) (in toluene, 283.15 K): 5.4e-06
solubility (mole fraction) (in toluene, 288.15 K): 6.1e-06
solubility (mole fraction) (in toluene, 293.15 K): 8.4e-06
solubility (mole fraction) (in toluene, 298.15 K): 1.05e-05
solubility (mole fraction) (in toluene, 303.15 K): 1.28e-05
solubility (mole fraction) (in toluene, 308.15 K): 1.5e-05
solubility (mole fraction) (in toluene, 313.15 K): 1.95e-05
solubility (mole fraction) (in toluene, 318.15 K): 2.6e-05
solubility (mole fraction) (in water, 273.15 K): 5.92e-05
solubility (mole fraction) (in water, 278.15 K): 7.18e-05
solubility (mole fraction) (in water, 283.15 K): 9.34e-05
solubility (mole fraction) (in water, 288.15 K): 0.000126
solubility (mole fraction) (in water, 293.15 K): 0.000159
solubility (mole fraction) (in water, 298.15 K): 0.000188
solubility (mole fraction) (in water, 303.15 K): 0.000223
solubility (mole fraction) (in water, 308.15 K): 0.00025
solubility (mole fraction) (in water, 313.15 K): 0.000313
solubility (mole fraction) (in water, 318.15 K): 0.000369
